Experimental data from patent US20080317769A1, “Vaccine Composition Comprising Alpha-Galactosylceramide as an Adjuvant For Intranasal Administration” (priority 2005, published 2008).
Entries after “also recorded” stand apart in the source; their conditions may differ.

Tests used:
Format in all cases: in vivo
[1] = system: OVA-specific antibody responses; assay: OVA-specific antibody responses after intranasal co-administration of OVA and αGalCer, Balb/c mice
Experimental: To investigate whether αGalCer can be used as a strong adjuvant for a nasal vaccine in Balb/c mice, different amounts of αGalCer (0.15, 0.5, 2.0 μg) and 100 μg of OVA were intranasally administered to Balb/c mice by the same manner as described in Example 1, followed by measurement of OVA-specific IgG, OVA-specific IgG1 and IgG2a in serum and OVA-specific IgA responses in the nasal wash and the lung wash.

[2] = system: IFN-γ and IL-4 production; assay: IFN-γ and IL-4 levels in spleen and CLN, Balb/c mice
Experimental: It was directly investigated whether α-GalCer nasal vaccine adjuvant skews immune response into Th1 or Th2 immune response. To measure the secretions of cytokines, cells were obtained from spleen and cervical lymph node (CLN) a week after the final immunization. The cells ([…]) were cultured with 500 μg/ml of OVA for 4 days. The secretions of IFN-γ and IL-4 in the culture supernatant were measured by using the mouse IFN-γ and IL-4 OptELA set ELISA kit (BD Pharmigen) according to the manufacturer's instruction.
As described in Example 2, different amounts of αGalCer (0.125, 0.5, 2.0 μg) and OVA were intranasally administered to Balb/c mice (Charles River Laboratories, Oriet Co., Ltd., Korea), followed by measurement of the levels of IFN-γ and IL-4 in spleen and CLN.

[3] = system: β-galactosidase-specific antibody response; assay: β-galactosidase-specific antibody response after intranasal Ad-LacZ with αGalCer; conditions: Balb/c mice; 10^6 pfu Ad-LacZ + 0.125 μg αGalCer intranasal, twice at two-week intervals; vs vehicle alone or Ad-LacZ alone
Experimental: Balb/c mice were immunized with 10^6 pfu of replication-deficient live adenovirus harboring beta-galactosidase gene (Ad-LacZ) (Viromed, Korea) alone or together with 0.125 μg of αGalCer by the intranasal administration, two times at two-week intervals. One week after the final immunization, the nasal wash, the lung wash and serum were separated, by the same manner as described in Example 1, to measure β-galactosidase-specific antibody response. In addition, to measure CTL activity, spleen cells were stimulated by 2.5 μg/mL of β-galactosidase for 5 days and IFN-γ-producing CD8+ T cells were examined by intracellular cytokine staining according to the procedure as described in Example <4-2>.

[4] = system: OVA-specific antibody responses; assay: OVA-specific antibody responses by ELISA after intranasal co-administration of OVA and αGalCer, C57BL/6 mice
Experimental: To investigate the activity of αGalCer as an adjuvant in mucosa, required amount of αGalCer and 100 μg of OVA or 100 μg of OVA alone was diluted with PBS, making 20 μl solution (10 μl/nostril), which was administered to C57BL/6 mice or Balb/c mice (Charles River Laboratories, Orient Co., Ltd., Korea) at 6-8 weeks three times at one-week intervals.
Six to eight-weeks-old […] mice (Charles River Laboratories, Orient Co., Ltd., Korea) were immunized with 100 μg of OVA alone or together with the indicated amounts of αGalCer (0.125, 0.5, 2.0 μg), diluted with PBS and made 20 μl (10 μl/nostril) solution, three times at one-week intervals.
A week after the final immunization, the mice were sacrificed. OVA-specific antibody responses were measured by ELISA. The nasal wash sample was obtained by washing the nasal passage with 100 μl of sterilized PBS (Yamamoto et al., J. Immunol., 161: 4115, 1998), and bronchoalveolar lavage fluid was also obtained by the same manner as described to prepare the lung wash (Chung et al., Immunobiology 206: 408, 2002).
OVA-specific IgG titers in the nasal wash and the lung wash were measured (Chung et al., Immunobiology 206: 408, 2002). To measure IgA, IgG1 and IgG2a titers, two-fold serially diluted samples were used. To determine IgA titer, horseradish-peroxidase-conjugated goat anti-mouse IgA (SIGMA, USA), peroxidase substrate and TMB (SIGMA, USA) were used and 0.5 N—HCL was added thereto to terminate color development. Then, OD450 was measured. To determine IgG, IgG1 and IgG2a titers, alkaline phosphatase-conjugated goat anti-mouse IgG, IgG1 and IgG2a (Southern Biotech, USA) and alkaline phosphatase substrate, p-nitrophenyl phosphate (SIGMA), were used.
To assess the immune bias towards Th1 or Th2 immune responses induced by α-GalCer nasal vaccine adjuvant indirectly, IgG isotypes in serum were determined and the ratios of IgG1 to IgG2a were calculated.

[5] = system: EG7 tumor cells; assay: EG7 tumor challenge after intranasal immunization with OVA and αGalCer; conditions: C57BL/6 mice, 3×10^6 EG7 cells s.c., day 14
Experimental: To confirm whether αGalCer could be used as a nasal vaccine adjuvant inducing anticancer activity, C57BL/6 mice were immunized with 100 μg of OVA alone or together with αGalCer (0.125, 0.5, 2.0 μg) by the intranasal administration three times at one-week intervals. Two weeks after the final immunization, 3×10^6 EG7 tumor cells were subcutaneously inoculated in the left flank of the immunized mice. On the 14th day of the inoculation, the mice were sacrificed and the palpable tumors were weighed.

[6] = system: immune cells from spleen and CLN; assay: Immune cell proliferation, [3H]-thymidine incorporation of spleen and CLN cells cultured with inactivated PR8; conditions: Balb/c mice; inactivated PR8 + αGalCer intranasal; cells cultured with inactivated PR8 for 3 days, [3H]-thymidine 18 hrs
Experimental: (§1) To examine the role of αGalCer as an adjuvant of a killed virus, influenza virus A/PR/8/34 (PR8), which was inactivated with formalin, was used as an antigen to examine the anti-virus immune response. Balb/c mice were immunized with indicated amounts (1 μg, 10 μg) of inactivated PR8 alone or together with αGalCer by the intranasal administration twice at two-week intervals. Two weeks after the final immunization, the mice were sacrificed and following experiments were performed.
Single cells separated from the spleen and CLN of the sacrificed mice were cultured with inactivated PR8 for 3 days and [^3H]-thymidine was added and further incubated for 18 hrs. As cells were being proliferated, the level of incorporated [^3H]-thymidine was measured by LSC.

[7] = system: inactivated influenza virus A/PR/8/34 (PR8); assay: Humoral immune response after intranasal formalin-inactivated PR8 virus with αGalCer; conditions: Balb/c mice
Experimental: as §1
The nasal wash, the lung wash and serum were separated from the sacrificed mice and the antibody productions were observed therein by the same manner as described in Example 1.

[8] = 0.5 μg of αGalCer intranasally coadministered with OVA
[9] = αGalCer (0.15, 0.5, 2.0 μg) + 100 μg OVA intranasal, vs vehicle alone or OVA alone

## CCCCCCCCCCCCCCCCCCCCCCCCCC(=O)N[C@@H](CO[C@H]1O[C@H](CO)[C@H](O)[C@H](O)[C@H]1O)[C@H](O)[C@H](O)CCCCCCCCCCCCCC [αGalCer, alpha-galactosylceramide]
[1]; [8]
  IgG antibody level in serum, comparison of αGalCer doses: highest level of IgG antibody
[1]; [9]
  OVA-specific IgA responses in the nasal wash and the lung wash: higher OVA-specific IgA responses
  OVA-specific IgG response in serum: higher OVA-specific IgG response
[1]; αGalCer + OVA intranasal, serum
  OVA-specific IgG1 and IgG2a titers: increases
[2]; [8]
  IL-4 level in spleen, comparison of αGalCer doses: highest level of IL-4
[2]; all groups coimmunized with αGalCer (0.125, 0.5, 2.0 μg) and OVA
  production of IFN-γ and IL-4 in spleen and CLN: significant increase
[2]; αGalCer dose series + OVA intranasal
  level of mucosal IgA in the lung wash and production of IL-4 in CLN, relation to the amount of αGalCer: inverse proportion
[3]
  β-galactosidase-specific IgG antibody in serum: higher levels
  β-galactosidase-specific S-IgA antibody in the nasal wash and the lung wash: higher levels
[4]; 2.0 μg αGalCer + 100 μg OVA intranasal, three times at one-week intervals, vs vehicle alone or OVA alone
  OVA-specific IgA responses in the nasal wash and the lung wash: significantly higher; also recorded: increased
[4]; co-administration of αGalCer and OVA intranasal
  OVA-specific Th2 type IgG1 and Th1 type IgG2a levels in serum: remarkable increase; also recorded: increased
[4]; αGalCer 0.125, 0.5, 2.0 μg + 100 μg OVA intranasal, vs vehicle alone or OVA alone
  OVA-specific IgG in serum: higher levels
[5]; 0.125 μg αGalCer + 100 μg OVA intranasal
  fraction of mice with tumor masses: ⅓
[5]; 0.5 μg and 2.0 μg αGalCer together with OVA intranasal
  tumor formation: completely inhibited
[6]
  proliferation of immune cells from spleen and CLN: significantly increased
[7]; inactivated PR8 (1 μg, 10 μg) + αGalCer intranasal twice at two-week intervals, vs inactivated PR8 alone
  antigen-specific systemic IgG in serum: significantly higher; also recorded: increased
[7]; inactivated PR8 + αGalCer intranasal twice at two-week intervals
  mucosal S-IgA in the nasal wash and the lung wash: remarkably increased
